Assays:
Details in all cases: 72 h
Caco-2 [1] = assay: cell viability relative to DMSO; higher = less toxic
Calu-3 [2] = assay: as above
HepG2 [3] = assay: as above
U2OS [4] = assay: as above
Vero E6 [5] = assay: as above
Caco-2 [6] = assay: relative viability EC50 (midpoint between 100% and the lowest measured viability); higher = less toxic
Calu-3 [7] = assay: as above
HepG2 [8] = assay: as above
U2OS [9] = assay: as above
Vero E6 [10] = assay: as above
Caco-2 [11] = assay: drug sensitivity score (DSS) for viability; higher = more toxic; extreme values may be limits of the assay
Calu-3 [12] = assay: as above
HepG2 [13] = assay: as above
U2OS [14] = assay: as above
Vero E6 [15] = assay: as above

Compound | cell viability (Caco-2 [1]; 1 nM) | cell viability (Caco-2 [1]; 10 nM) | cell viability (Caco-2 [1]; 100 nM) | cell viability (Caco-2 [1]; 1000 nM) | cell viability (Caco-2 [1]; 10000 nM) | cell viability (Calu-3 [2]; 1 nM) | cell viability (Calu-3 [2]; 10 nM) | cell viability (Calu-3 [2]; 100 nM) | cell viability (Calu-3 [2]; 1000 nM) | cell viability (Calu-3 [2]; 10000 nM) | cell viability (HepG2 [3]; 1 nM) | cell viability (HepG2 [3]; 10 nM) | cell viability (HepG2 [3]; 100 nM) | cell viability (HepG2 [3]; 1000 nM) | cell viability (HepG2 [3]; 10000 nM) | cell viability (U2OS [4]; 1 nM) | cell viability (U2OS [4]; 10 nM) | cell viability (U2OS [4]; 100 nM) | cell viability (U2OS [4]; 1000 nM) | cell viability (U2OS [4]; 10000 nM) | cell viability (Vero E6 [5]; 1 nM) | cell viability (Vero E6 [5]; 10 nM) | cell viability (Vero E6 [5]; 100 nM) | cell viability (Vero E6 [5]; 1000 nM) | cell viability (Vero E6 [5]; 10000 nM) | relative viability EC50 (Caco-2 [6]) | relative viability EC50 (Calu-3 [7]) | relative viability EC50 (HepG2 [8]) | relative viability EC50 (U2OS [9]) | relative viability EC50 (Vero E6 [10]) | drug sensitivity score (Caco-2 [11]) | drug sensitivity score (Calu-3 [12]) | drug sensitivity score (HepG2 [13]) | drug sensitivity score (U2OS [14]) | drug sensitivity score (Vero E6 [15])
C[C@H](CS)C(=O)N1CCC[C@H]1C(=O)O [captopril] | 96.1% | 92.8% | 96.8% | 90.9% | 89.6% | 103% | 111% | 93.4% | 95.4% | 97.4% | 99.5% | 95.7% | 105% | 95.3% | 108% | 98.6% | 101% | 94.9% | 98% | 97.3% | 108% | 100% | 107% | 100% | 96.6% | > 10 µM | > 10 µM | > 10 µM | > 10 µM | > 10 µM | 0 | 0 | 0 | 0 | 0
CC1(C)S[C@@H]2[C@H](NC(=O)C(C(=O)O)c3ccccc3)C(=O)N2[C@H]1C(=O)O (stereo not given in full) [carbenicillin] | 104% | 106% | 92.5% | 93.9% | 94.9% | 105% | 98.3% | 103% | 105% | 99.9% | 97.2% | 100% | 103% | 103% | 98% | 103% | 102% | 98.8% | 102% | 96% | 102% | 100% | 102% | 95.7% | 95.7% | > 10 µM | > 10 µM | > 10 µM | > 10 µM | > 10 µM | 0 | 0 | 0 | 0 | 0
CC(C(=O)O)c1ccc2c(c1)[nH]c1ccc(Cl)cc12 (stereo not given) [carprofen] | 96.4% | 96.5% | 88.4% | 95.7% | 94.6% | 96.5% | 95.5% | 104% | 104% | 94% | 103% | 101% | 90.6% | 96.5% | 99.6% | 96.5% | 102% | 96.1% | 100% | 98.7% | 107% | 101% | 115% | 99.4% | 101% | > 10 µM | > 10 µM | > 10 µM | > 10 µM | > 10 µM | 0 | 0 | 0 | 0 | 0
CNCCCOc1cc(F)c(-c2c(Cl)nc3ncnn3c2N[C@@H](C)C(F)(F)F)c(F)c1 [cevipabulin] | 102% | 110% | 72.3% | 44.7% | 48.1% | 106% | 116% | 83.4% | 43.7% | 34.7% | 96.8% | 102% | 29.3% | 21.9% | 22.8% | 94.8% | 102% | 65.8% | 25.6% | 21% | 105% | 106% | 89.5% | 11.6% | 8.3% | 0.1 µM | 0.237 µM | 0.0431 µM | 0.121 µM | 0.241 µM | 13.7 | 12.5 | 22.9 | 18.1 | 17.9
Nc1ncnc(Nc2ccc(Cl)cc2)n1 [chlorazanil] | 116% | 97.7% | 96.5% | 101% | 103% | 104% | 101% | 103% | 87.4% | 98.4% | 96.4% | 93.9% | 88% | 93.7% | 92.5% | 101% | 96.8% | 97.8% | 98.3% | 99.6% | 99.6% | 101% | 91% | 98.6% | 101% | > 10 µM | > 10 µM | > 10 µM | > 10 µM | > 10 µM | 0 | 0 | 0 | 0 | 0
CCN(CC)CCN(Cc1ccc(-c2ccc(C(F)(F)F)cc2)cc1)C(=O)Cn1c(SCc2ccc(F)cc2)nc(=O)c2c1CCC2 [darapladib] | 93.5% | 93.6% | 98.9% | 93.8% | 13% | 102% | 95.7% | 106% | 90.2% | 0.4% | 91.8% | 97.1% | 85.3% | 101% | 0.3% | 102% | 98.3% | 103% | 98.4% | 1.6% | 91.9% | 100% | 90.1% | 92.4% | 45.1% | 2.59 µM | 2.35 µM | 3.21 µM | 3.05 µM | 2.05 µM | 5.8 | 7.1 | 5.5 | 5.7 | 4.2

Source: the supplement of paper PMC13380429
